Active and inactive are the calls of the source. The rule behind the calls is not given here.

The text below walks through data of ChEMBL document CHEMBL5247583, “Synthesis and evaluation of small molecule inhibitors of LSD1 for use against MYCN-expressing neuroblastoma” (Eur J Med Chem, 2022).

The target in data set [1] is T1, MAO-A (Amine oxidase [flavin-containing] A) (Homo sapiens, UniProt P21397).
T1 sequence (P21397 whole entry): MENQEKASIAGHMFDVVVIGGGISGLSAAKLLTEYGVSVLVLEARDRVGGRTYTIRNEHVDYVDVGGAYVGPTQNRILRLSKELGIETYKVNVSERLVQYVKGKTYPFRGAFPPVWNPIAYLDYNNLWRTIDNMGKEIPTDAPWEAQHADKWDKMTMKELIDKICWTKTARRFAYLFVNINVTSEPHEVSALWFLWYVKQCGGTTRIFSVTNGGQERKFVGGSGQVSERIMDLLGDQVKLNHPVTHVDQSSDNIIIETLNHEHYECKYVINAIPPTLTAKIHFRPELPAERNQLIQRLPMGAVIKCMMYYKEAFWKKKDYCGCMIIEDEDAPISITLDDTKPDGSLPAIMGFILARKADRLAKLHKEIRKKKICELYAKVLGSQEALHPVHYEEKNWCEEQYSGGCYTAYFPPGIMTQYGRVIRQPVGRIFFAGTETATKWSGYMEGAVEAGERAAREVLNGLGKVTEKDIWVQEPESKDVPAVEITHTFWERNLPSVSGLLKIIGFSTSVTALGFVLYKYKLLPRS
As to the kind of experiment: Inhibition of recombinant MAO-A (unknown origin) at 1 uM using luciferin as substrate preincubated for 1 hr followed by substrate addition measured after 20 min by microplate reader analysis relative to control. The note with it: probe luciferin, time 80 min.

For data set [2], the system named is IMR-32. As to the kind of experiment: Cytotoxicity against human IMR-32 cells assessed as lethal concentration measured after 24 hrs by cell titer glo assay. It is filed as functional. The note with it: read-out: LC50 (the source's name).
For data set [3], the system named is IMR-32. Description: Cytotoxicity against human IMR-32 cells assessed as combination index measured after 24 hrs by cell titer glo assay. It counts as functional.
In data set [4] the test system is CHP-134. As to the kind of experiment: Cytotoxicity against human CHP-134 cells assessed as lethal concentration measured after 24 hrs by cell titer glo assay. It is filed as functional. The note with it: read-out: LC50 (the source's name).
Data set [5] relates to CHP-134. As to the kind of experiment: Cytotoxicity against human CHP-134 cells assessed as lethal concentration measured after 24 hrs in presence of bortezomib by cell titer glo assay. It is filed as functional. The note with it: read-out: LC50 (the source's name).
Data set [6] relates to IMR-32. As to the kind of experiment: Cytotoxicity against human IMR-32 cells assessed as lethal concentration measured after 24 hrs in presence of bortezomib by cell titer glo assay. It counts as functional. The note with it: read-out: LC50 (the source's name).
In data set [7] the test system is IMR-32. Description: Upregulation of LSD1 expression level in human IMR-32 cells by DAPI staining based analysis. It is filed as functional, cell-based.
In data set [8] the test system is CHP-134. As to the kind of experiment: Cytotoxicity against human CHP-134 cells assessed lethal concentration measured after 72 hrs by cell titer glo assay. It is filed as functional. To be noted: read-out: LC50 (the source's name).
The target of data set [9] is Spermine oxidase (Homo sapiens) (UniProt Q9NWM0). Description: Inhibition of SMOX (unknown origin) at 50 uM using spermine as substrate preincubated for 1 hr followed by substrate addition and measured after 20 mins by luminometer analysis relative to control. To be noted: time 80.0 min.
Spermine oxidase (Homo sapiens), sequence (Q9NWM0 whole entry): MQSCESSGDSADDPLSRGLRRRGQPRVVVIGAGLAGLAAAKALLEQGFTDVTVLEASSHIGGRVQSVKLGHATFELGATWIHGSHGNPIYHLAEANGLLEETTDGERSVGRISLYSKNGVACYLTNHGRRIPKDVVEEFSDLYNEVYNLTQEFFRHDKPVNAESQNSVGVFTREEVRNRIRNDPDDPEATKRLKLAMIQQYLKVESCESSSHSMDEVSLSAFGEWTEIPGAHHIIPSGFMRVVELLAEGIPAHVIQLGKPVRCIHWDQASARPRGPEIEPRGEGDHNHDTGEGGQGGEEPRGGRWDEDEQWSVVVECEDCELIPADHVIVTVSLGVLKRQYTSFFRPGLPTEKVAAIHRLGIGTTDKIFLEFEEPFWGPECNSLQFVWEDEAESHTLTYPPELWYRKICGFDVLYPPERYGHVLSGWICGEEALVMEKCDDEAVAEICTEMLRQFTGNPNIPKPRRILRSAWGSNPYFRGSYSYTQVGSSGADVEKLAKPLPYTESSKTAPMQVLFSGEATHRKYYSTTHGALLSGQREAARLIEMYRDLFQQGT
Data set [10] concerns CHP-134. Description: Cytotoxicity against human CHP-134 cells measured after 24 hrs in presence of bortezomib by cell titer glo assay. It is filed as functional, cell-based.
Data set [11] has as its system IMR-32. As to the kind of experiment: Cytotoxicity against human IMR-32 cells assessed lethal concentration measured after 72 hrs by cell titer glo assay. To be noted: read-out: LC50 (the source's name). It counts as functional.

With `C#CCN(C)CCCOc1ccc(Cl)cc1Cl` [CLORGILINE], the inhibition at 20 min, 1 µM in data set [1] was determined as 92%.
With `CC(C)C[C@H](NC(=O)[C@H](Cc1ccccc1)NC(=O)c1cnccn1)B(O)O` [BORTEZOMIB], the figures for the CC50 in data set [2] and in data set [4] were 19 nM and 106 nM, respectively. In addition, in data set [3], the CI is 0.37.
`COc1ccc(C2=C(c3ccc(C#N)c(F)c3)N=C(N3CCC(N)CC3)N(C)C2)cc1F`: the CC50 in data set [5] was found to be 16 nM; in data set [6] it was 8.4 nM.
In the case of `O=S(=O)(Nc1ccc(Br)cc1-c1nnn[nH]1)c1ccc(-c2ccc(Cl)cc2)cc1`, the result in data set [7] and in data set [10] was Active. Also, the CC50 in data set [8] turned out to be 11600 nM; in data set [5], 60 nM; in data set [11], 3100 nM; in data set [6], 7 nM. Further, in [9], the inhibition was 12%.
